Results on twelve molecules are retold here after article PMC10537368, “Design, Synthesis, and Biological Evaluation of Novel 3-Cyanopyridone/Pyrazoline Hybrids as Potential Apoptotic Antiproliferative Agents Targeting EGFR/BRAF^V600E Inhibitory Pathways” (Molecules, 2023).

Where “and” joins values, the source holds several entries; their conditions need not be identical. Equal entries are not always repeated.

Data set [1] has as its system Caspase-3 in human epithelial cancer cell line (A-594). In words: Caspase 3 activation assay. In kind it is cell-based. Particulars: for Caspase-3 Conc: A-594 cell line; for Caspase-3 Fold Change: A-594, vs untreated control cells. From the text: Caspases are essential for the induction and maintenance of apoptosis. Caspase-3 is an important caspase that cleaves several cell proteins, causing apoptosis.
See Supplementary Materials Files.

Data set [2] is described as follows: Cell viability MTT assay on MCF-10A normal cells. Type of data set: cell-based. Particulars: human, MCF-10A mammary gland epithelial normal cells, MCF-10A cells, four days of incubation. How it is done:
The viability of new compounds 21–30 was examined using the human mammary gland epithelial (MCF-10A) cell line. The cell viability of compounds 21–30 was assessed using the MTT assay after four days of incubation on MCF-10A cells.
The human mammary gland epithelial (MCF-10A) normal cell line was utilized to investigate the viability of new derivatives 21–30 [56]. For more information, see Supplementary Materials Files.

In data set [3] the test system is lung cancer (A-549) cell line. The data set can be described thus: Antiproliferative MTT assay, A-549. To be noted: Homo sapiens, A549; A-549, MTT; read-out: Antiproliferative Activity IC50 ± SEM, A-549. Type of data set: cell-based. From the text:
(§1) The median inhibitory concentration (IC50) and GI50 [58]
A general note: Tetrazolium dyes change colour on reduction, which living cells bring about.

Data set [4] concerns colon cancer (HT-29) cell line. In words: Antiproliferative MTT assay, HT-29. Type of data set: cell-based. To be noted: Homo sapiens; HT-29, MTT; read-out: Antiproliferative Activity IC50 ± SEM, HT-29.
Excerpt: as §1

For data set [5], the system named is pancreatic cancer (Panc-1) cell line. The data set can be described thus: Antiproliferative MTT assay, Panc-1. In kind it is cell-based. Particulars: Homo sapiens; Panc-1, MTT; read-out: Antiproliferative Activity IC50 ± SEM, Panc-1.
Excerpt: as §1

A further data set concerns the target EGFR (Homo sapiens, UniProt P00533). The data set can be described thus: EGFR inhibitory assay. Particulars: for fold more potent than the reference Erlotinib (EGFR IC50): IC50 ratio vs Erlotinib.
Data set [6] deals with four human cancer cell lines (A-549, MCF-7, Panc-1, HT-29). In words: Antiproliferative MTT assay, average over four cancer cell lines (GI50). In kind it is cell-based. To be noted: for IC50: Homo sapiens, average IC50 against the four cancer cell lines.
The target in another data set is BRAF^V600E (Homo sapiens, UniProt P15056, V600E). The data set can be described thus: BRAF^V600E inhibitory assay. In kind it is biochemical. Particulars: read-out: BRAF^V600E Inhibition IC50 ± SEM.
The test system of data set [7] is breast cancer (MCF-7) cell line. In words: Antiproliferative MTT assay, MCF-7. In kind it is cell-based. Particulars: Homo sapiens, MCF7; MCF-7, MTT; read-out: Antiproliferative Activity IC50 ± SEM, MCF-7.
Excerpt: as §1

The test system of data set [8] is Caspase-8 in A-594 cancer cell line. In words: Caspase-8 level assay. In kind it is cell-based, human. Particulars: for Caspase-8 Fold Change: A-594, vs untreated control; for Caspase-8 Conc: A-594 cell line.
In data set [9] the test system is Bcl-2 in A-594 cancer cell line. The data set can be described thus: Bcl-2 level assay. In kind it is cell-based, human. Particulars: for Bcl-2 Fold Reduction: A-594, vs untreated control; for Bcl-2 Conc: A-594 cell line. An excerpt: […]. […]. Compared to the untreated control cell, compounds 28 and 30 elevated caspase-8 levels by 25- and 28-fold, respectively.
[…]. Compounds 21, 28, and 30 were investigated as caspase-3, caspase-8, Bax activators, and Bcl-2 down-regulators against the human epithelial cancer cell line (A-594). See Supplementary Materials Files.

The test system of data set [10] is Bax in A-594 cancer cell line. In words: Bax level assay. In kind it is cell-based, human. Particulars: for Bax Fold Change: A-594, vs untreated control; for Bax Conc: A-594 cell line.

Sequence of BRAF^V600E (P15056 whole entry V600E): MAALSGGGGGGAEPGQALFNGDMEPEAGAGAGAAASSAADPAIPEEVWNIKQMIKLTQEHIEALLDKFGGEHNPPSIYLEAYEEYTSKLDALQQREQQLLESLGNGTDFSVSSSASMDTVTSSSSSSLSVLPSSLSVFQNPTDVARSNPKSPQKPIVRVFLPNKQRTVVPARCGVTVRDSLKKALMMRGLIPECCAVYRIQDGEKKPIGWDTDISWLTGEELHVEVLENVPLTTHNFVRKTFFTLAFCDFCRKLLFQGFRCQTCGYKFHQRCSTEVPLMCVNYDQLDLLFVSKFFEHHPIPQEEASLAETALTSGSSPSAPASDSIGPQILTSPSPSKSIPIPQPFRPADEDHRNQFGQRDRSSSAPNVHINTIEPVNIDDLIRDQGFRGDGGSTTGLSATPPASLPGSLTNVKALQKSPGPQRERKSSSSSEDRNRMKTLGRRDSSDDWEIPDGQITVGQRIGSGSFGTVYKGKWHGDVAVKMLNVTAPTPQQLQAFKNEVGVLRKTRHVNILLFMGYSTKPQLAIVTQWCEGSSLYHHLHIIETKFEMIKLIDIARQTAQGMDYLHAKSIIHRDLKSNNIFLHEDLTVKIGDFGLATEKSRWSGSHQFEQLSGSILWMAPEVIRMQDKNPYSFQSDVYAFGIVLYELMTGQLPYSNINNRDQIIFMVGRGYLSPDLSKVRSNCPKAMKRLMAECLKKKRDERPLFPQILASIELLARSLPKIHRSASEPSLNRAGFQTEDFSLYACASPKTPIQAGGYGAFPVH
Sequence of EGFR (P00533 25-1210): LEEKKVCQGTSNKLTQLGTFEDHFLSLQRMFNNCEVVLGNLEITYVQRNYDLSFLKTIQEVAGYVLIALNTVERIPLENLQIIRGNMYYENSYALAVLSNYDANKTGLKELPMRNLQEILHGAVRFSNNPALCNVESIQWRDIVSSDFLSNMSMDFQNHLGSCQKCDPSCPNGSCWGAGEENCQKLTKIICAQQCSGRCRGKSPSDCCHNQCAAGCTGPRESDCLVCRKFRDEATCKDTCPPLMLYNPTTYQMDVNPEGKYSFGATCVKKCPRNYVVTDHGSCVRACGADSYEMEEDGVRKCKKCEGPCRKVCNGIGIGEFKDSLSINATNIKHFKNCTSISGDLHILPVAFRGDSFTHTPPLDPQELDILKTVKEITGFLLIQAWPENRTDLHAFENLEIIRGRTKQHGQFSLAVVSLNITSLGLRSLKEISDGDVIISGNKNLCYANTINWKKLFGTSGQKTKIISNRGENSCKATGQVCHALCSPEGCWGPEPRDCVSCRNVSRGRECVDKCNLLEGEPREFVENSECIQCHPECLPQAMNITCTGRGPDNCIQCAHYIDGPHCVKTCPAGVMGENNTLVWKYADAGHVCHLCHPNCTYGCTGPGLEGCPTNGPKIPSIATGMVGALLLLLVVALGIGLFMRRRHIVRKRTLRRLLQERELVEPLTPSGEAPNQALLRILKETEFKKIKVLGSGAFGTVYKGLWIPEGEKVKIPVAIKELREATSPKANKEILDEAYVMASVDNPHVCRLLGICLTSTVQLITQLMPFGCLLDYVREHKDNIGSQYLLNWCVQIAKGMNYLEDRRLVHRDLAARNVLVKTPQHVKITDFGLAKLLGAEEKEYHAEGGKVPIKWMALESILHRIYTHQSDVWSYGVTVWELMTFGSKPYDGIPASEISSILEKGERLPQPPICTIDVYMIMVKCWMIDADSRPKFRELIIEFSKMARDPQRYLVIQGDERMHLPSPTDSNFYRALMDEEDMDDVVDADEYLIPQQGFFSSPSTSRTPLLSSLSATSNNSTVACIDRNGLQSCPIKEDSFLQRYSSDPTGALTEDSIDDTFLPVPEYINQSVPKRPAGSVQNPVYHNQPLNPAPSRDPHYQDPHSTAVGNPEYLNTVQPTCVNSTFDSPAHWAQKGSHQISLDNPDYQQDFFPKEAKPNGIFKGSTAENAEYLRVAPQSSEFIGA

Usually viability stands for a read-out of living cells in per cent, often relative to untreated cells. The low end stands for more harm to the cells, the high end for less harm to the cells. What is called IC50 is the concentration needed to halve the response being measured. As for `N#Cc1c(-c2ccc(Cl)cc2)cc(-c2ccc(Cl)cc2)n(CC(=O)Nc2ccc(C3=NNC(c4ccccc4)C3)cc2)c1=O` (stereo not shown) [Compound 21, 2-(3-Cyano-4,6-bis(4-chlorophenyl)-2-oxopyridin-1(2H)-yl)-N-(4-(5-phenyl-4,5-dihydro-1H-pyrazol-3-yl)phenyl)acetamide], the “Caspase-3 Conc” value in data set [1] amounted to 530 ± 5 pg/mL. The molecule further displayed a viability at 4 days, 50 µM in data set [2] of 90%. Further, the half-maximal inhibitory concentration (IC50) in data set [3] was determined as 26 ± 2 nM; in data set [4] it was 28 ± 2 nM; in data set [5], 28 ± 2 nM; at EGFR, 72 ± 5 nM; in data set [6], 28 nM; on BRAF^V600E, 73 ± 6 nM. Further, the IC50 in [7] turned out to be 30 ± 3 nM.

As for `COc1ccc(-c2cc(-c3ccc(OC)c(OC)c3)n(CC(=O)Nc3ccc(C4=NNC(c5ccccc5)C4)cc3)c(=O)c2C#N)cc1OC` (stereo not shown) [Compound 22, 2-(3-Cyano-4,6-bis(3,4-dimethoxyphenyl)-2-oxopyridin-1(2H)-yl)-N-(4-(5-phenyl-4,5-dihydro-1H-pyrazol-3-yl)phenyl)acetamide], in [2], the viability at 4 days, 50 µM stood at 89%. Moreover, the IC50 stood at 32 ± 3 nM in data set [3]; 32 ± 3 nM in [4]; 34 ± 3 nM in [5]; 33 nM in [6]; 35 ± 3 nM in data set [7]. Besides, the “fold less potent than compound 30 (GI50)” value in data set [6] (GI50 ratio vs compound 30) was 1.3 fold.

Regarding `N#Cc1c(-c2ccc(Cl)cc2)cc(-c2ccc(Cl)cc2)n(CC(=O)Nc2ccc(C3=NNC(c4ccc(Cl)cc4)C3)cc2)c1=O` (stereo not shown) [Compound 23, 2-(3-Cyano-4,6-bis(4-chlorophenyl)-2-oxopyridin-1(2H)-yl)-N-(4-(5-(4-chlorophenyl)-4,5-dihydro-1H-pyrazol-3-yl)phenyl)acetamide], the viability at 4 days, 50 µM in data set [2] amounted to 91%. Moreover, the concentration for half-maximal inhibition (IC50) turned out to be 29 ± 2 nM in data set [3]; 32 ± 3 nM in data set [4]; 32 ± 3 nM in data set [5]; 32 nM in data set [6]; 34 ± 3 nM in data set [7].

Molecule `COc1ccc(-c2cc(-c3ccc(OC)c(OC)c3)c(C#N)c(=O)n2CC(=O)Nc2ccc(C3=NNC(c4ccc(OC)c(OC)c4)C3)cc2)cc1` (stereo not shown) [Compound 24, 2-(3-Cyano-4-(3,4-dimethoxyphenyl)-6-(4-methoxyphenyl)-2-oxopyridin-1(2H)-yl)-N-(4-(5-(3,4-dimethoxyphenyl)-4,5-dihydro-1H-pyrazol-3-yl)phenyl)acetamide] came in with a viability at 4 days, 50 µM in data set [2] of 90%. Further, the IC50 in [3] was found to be 27 ± 2 nM; in [4], 28 ± 2 nM; in data set [5], 29 ± 2 nM; on EGFR, 73 ± 5 nM; in [6], 29 nM; at BRAF^V600E it was 77 ± 6 nM. Also, the IC50 in [7] was determined as 31 ± 3 nM.

Consider `COc1ccc(C2CC(c3ccc(NC(=O)Cn4c(-c5ccc(Cl)cc5)cc(-c5ccc(Cl)cc5)c(C#N)c4=O)cc3)=NN2)cc1` (stereo not shown) [Compound 25, 2-(3-Cyano-4,6-bis(4-chlorophenyl)-2-oxopyridin-1(2H)-yl)-N-(4-(5-(4-methoxyphenyl)-4,5-dihydro-1H-pyrazol-3-yl)phenyl)acetamide], for which the viability at 4 days, 50 µM in data set [2] was determined as 88%. Moreover, the IC50 was 40 ± 3 nM in [3]; 42 ± 4 nM in [4]; 42 ± 4 nM in [5]; 42 nM in data set [6]; 45 ± 4 nM in data set [7].

In the case of `Cc1ccc(C2CC(c3ccc(NC(=O)Cn4c(-c5ccc(Cl)cc5)cc(-c5ccc(Cl)cc5)c(C#N)c4=O)cc3)=NN2)c(C)c1` (stereo not shown) [Compound 26, 2-(3-Cyano-4,6-bis(4-chlorophenyl)-2-oxopyridin-1(2H)-yl)-N-(4-(5-(2,4-dimethylphenyl)-4,5-dihydro-1H-pyrazol-3-yl)phenyl)acetamide], in data set [2], the viability at 4 days, 50 µM is 92%. Also, the IC50 in data set [3] was 35 ± 3 nM; in [4], 36 ± 3 nM; in data set [5], 36 ± 3 nM; in data set [6], 37 nM; in data set [7] it was 40 ± 4 nM.

In data set [2], `N#Cc1c(-c2ccc(Cl)cc2)cc(-c2ccc(Cl)cc2)n(CC(=O)Nc2ccc(C3=NNC(c4ccc(Cl)cc4Cl)C3)cc2)c1=O` (stereo not shown) [Compound 27, 2-(3-Cyano-4,6-bis(4-chlorophenyl)-2-oxopyridin-1(2H)-yl)-N-(4-(5-(2,4-dichlorophenyl)-4,5-dihydro-1H-pyrazol-3-yl)phenyl)acetamide] came in with a viability at 4 days, 50 µM of 88%. The IC50 in data set [3] came out at 36 ± 3 nM; in data set [4], 38 ± 3 nM; in [5], 38 ± 3 nM; in data set [6], 38 nM; in data set [7], 42 ± 4 nM.

For `COc1ccc(C2CC(c3ccc(NC(=O)Cn4c(-c5ccc(OC)c(OC)c5)cc(-c5ccc(OC)c(OC)c5)c(C#N)c4=O)cc3)=NN2)cc1` (stereo not shown) [Compound 28, 2-(3-Cyano-4,6-bis(3,4-dimethoxyphenyl)-2-oxopyridin-1(2H)-yl)-N-(4-(5-(4-methoxyphenyl)-4,5-dihydro-1H-pyrazol-3-yl)phenyl)acetamide], the “Caspase-3 Fold Change” value in data set [1] is recorded as ~9 fold. In data set [1], the “Caspase-3 Conc” value was 590 ± 5 pg/mL and 595 ± 5 pg/mL. Further, the “Caspase-8 Fold Change” value in data set [8] turned out to be 25 fold. Besides, the “Caspase-8 Conc” value in data set [8] amounted to 2.25 ng/mL. The same molecule came in with a viability at 4 days, 50 µM in [2] of 89%. Besides, the IC50 in data set [3] was 25 ± 2 nM; in data set [4], 26 ± 2 nM; in data set [5] it was 26 ± 2 nM; at EGFR, 70 ± 5 nM; in [6] it was 27 nM; at BRAF^V600E, 65 nM and 69 nM. In addition, the concentration for half-maximal inhibition (IC50) in [7] is 30 ± 3 nM. Further, the “fold more potent than the reference Erlotinib (EGFR IC50)” value at EGFR was 1.2 fold. The “Bcl-2 Fold Reduction” value in [9] was found to be 6 fold. Moreover, in data set [9], the “Bcl-2 Conc” value is reported as 0.80 ng/mL. The “Bax Fold Change” value in data set [10] came out at 36 fold. Besides, the “Bax Conc” value in data set [10] turned out to be 325 pg/mL.

With `COc1ccc(C2CC(c3ccc(NC(=O)Cn4c(-c5ccc(Cl)cc5)cc(-c5ccc(Cl)cc5)c(C#N)c4=O)cc3)=NN2)cc1OC` (stereo not shown) [Compound 29, 2-(3-Cyano-4,6-bis(4-chlorophenyl)-2-oxopyridin-1(2H)-yl)-N-(4-(5-(3,4-dimethoxyphenyl)-4,5-dihydro-1H-pyrazol-3-yl)phenyl)acetamide], in [2], the viability at 4 days, 50 µM was 91%. The IC50 was 27 ± 2 nM in data set [3]; 30 ± 3 nM in data set [4]; 30 ± 3 nM in [5]; 75 ± 5 nM on EGFR; 30 nM in data set [6]; 80 ± 7 nM at BRAF^V600E. Also, the IC50 in data set [7] came out at 31 ± 3 nM.

Take `COc1ccc(-c2cc(-c3ccc(OC)c(OC)c3)n(CC(=O)Nc3ccc(C4=NNC(c5ccc(OC)c(OC)c5)C4)cc3)c(=O)c2C#N)cc1OC` (stereo not shown) [Compound 30, 2-(3-Cyano-4,6-bis(3,4-dimethoxyphenyl)-2-oxopyridin-1(2H)-yl)-N-(4-(5-(3,4-dimethoxyphenyl)-4,5-dihydro-1H-pyrazol-3-yl)phenyl)acetamide]: the “Caspase-3 Fold Change” value in data set [1] was ~11 fold. For the same molecule, the “Caspase-3 Conc” value in data set [1] stood at 710 ± 6 pg/mL. Moreover, the “Caspase-8 Fold Change” value in data set [8] worked out at 28 fold. In [8], the “Caspase-8 Conc” value is listed as 2.50 ng/mL. In [2], this molecule showed a viability at 4 days, 50 µM of 90%. Further, the IC50 in data set [3] is 23 ± 2 nM; in [4], 24 ± 2 nM; in [5], 24 ± 2 nM; at EGFR, 68 ± 4 nM; in data set [6], 25 nM; on BRAF^V600E, 69 nM and 65 nM. For the same molecule, the IC50 in data set [7] was 28 ± 2 nM. In addition, at EGFR, the “fold more potent than the reference Erlotinib (EGFR IC50)” value was found to be 1.2 fold. Besides, the “Bcl-2 Fold Reduction” value in data set [9] is on record as 8 fold. Besides, the “Bcl-2 Conc” value in data set [9] turned out to be 0.65 ng/mL. Moreover, the “fold more potent than the reference Erlotinib (GI50)” value in data set [6] (GI50 ratio vs Erlotinib) came to 1.3 fold. Further, in data set [10], the “Bax Fold Change” value was determined as 38 fold. In addition, in data set [10], the “Bax Conc” value was 345 pg/mL.

With `C#Cc1cccc(Nc2ncnc3cc(OCCOC)c(OCCOC)cc23)c1` [Erlotinib, reference compound], the IC50 was determined as 30 ± 3 nM in data set [3], 30 ± 3 nM in data set [4], 30 ± 3 nM in data set [5] and 40 ± 3 nM in [7].

For the molecule `CN[C@@H]1C[C@H]2O[C@@](C)([C@@H]1OC)n1c3ccccc3c3c4c(c5c6ccccc6n2c5c31)C(=O)NC4` [Staurosporine, reference compound], in data set [1], the “Caspase-3 Fold Change” value was 7 fold. For the same molecule, in [8], the “Caspase-8 Fold Change” value was found to be 21 fold. Also, in data set [9], the “Bcl-2 Fold Reduction” value turned out to be 5 fold and the “Bcl-2 Conc” value is given as 1.00 ng/mL. In data set [10], the “Bax Fold Change” value came to 32 fold.
